The subject of series [1] is Hepatitis C virus. The series is described as follows: Inhibition of HCV 1b BK delta21 NS5B delta21 polymerase. Set-up: species or system Hepatitis C virus subtype 1b.
Series [2] in a line: Metabolic stability in human liver microsomes assessed as half life. It counts as ADME, Microsome. (In general: Liver microsomes are vesicles of endoplasmic reticulum, rich in cytochrome P450 enzymes.)
Series [3] can be described thus: Cytotoxicity against human Huh7/C24 cells after 72 hrs. The format is cell-based, Huh-7.
Series [4] concerns Hepatitis C virus. The series is described as follows: Antiviral activity against HCV 1b BK delta21 in Huh7/C24 cells after 72 hrs by replicon assay. The format is functional, organism-based, Hepacivirus hominis. As to conditions: genotype 1b BK, Huh7/C24, 72 h. (A replicon is a self-replicating genome or part of one, used to study replication in cells.)
Series [5] can be described thus: Apparent permeability from apical to basolateral side in human Caco-2 cells at 10 uM. It counts as ADME, cell-based. On the technique in general: Passage across Caco-2 layers is used to estimate intestinal permeability.
Series [6] in a line: Oral bioavailability in cynomolgus monkey at 1 mg/kg. To be noted: in vivo. It counts as ADME, organism-based, Macaca fascicularis.
Series [7] is described as follows: Metabolic stability in monkey liver microsomes. The format is ADME, Macaca mulatta, Microsome. To be noted: rhesus monkey.

Structures are written as SMILES.

For `CS(=O)(=O)Nc1ccc2c(c1)S(=O)(=O)C=C(c1c(O)c(-c3cccs3)nn(Cc3ccccc3)c1=O)N2`, half-maximal inhibition in the series on Hepatitis C virus [1] (IC50) was put at 18 nM. In addition, the half-life in series [2] is above 60 min. In series [3], this molecule showed a CC50 at 72 h above 1000 nM. The molecule also registered an EC50 in the series with Hepatitis C virus [4] of 36 nM.

For the molecule `CS(=O)(=O)Nc1ccc2c(c1)S(=O)(=O)C=C(c1c(O)c(-c3cccs3)nn(CC3CCCC3)c1=O)N2`, the IC50 in the series with Hepatitis C virus [1] is 39 nM. The half-life in series [2] was found to be 43 min. In addition, the CC50 at 72 h in series [3] was above 1000 nM. The molecule further showed an EC50 in the series with Hepatitis C virus [4] of 15 nM.

Consider `CC(C)CCn1nc(-c2cccs2)c(O)c(C2=CS(=O)(=O)c3cc(N(C)S(C)(=O)=O)ccc3N2)c1=O`, for which the IC50 in the series with Hepatitis C virus [1] stood at 1600 nM.

In the series with Hepatitis C virus [1], `Cc1ccc(-c2nn(Cc3ccccc3)c(=O)c(C3=CS(=O)(=O)c4cc(N(C)S(C)(=O)=O)ccc4N3)c2O)s1` showed a half-inhibitory concentration (IC50) of 9000 nM. Besides, the half-life in series [2] was above 60 min.

Turning to `CC(C)CCn1nc(-c2cccs2)c(O)c(C2=Nc3ccc(NS(C)(=O)=O)cc3S(=O)(=O)N2)c1=O`, the apical-to-basolateral permeability (Papp A→B) at 10 µM in series [5] was found to be 0.02 ×10⁻⁶ cm/s.

In turn, `CC(C)CCn1c(=O)c(C2=Nc3ccc(NS(C)(=O)=O)cc3S(=O)(=O)N2)c(O)c2cccn21` came in with a bioavailability in series [6] of 0%. In the series with Hepatitis C virus [1], this molecule showed an IC50 below 10 nM. In addition, the EC50 in the series on Hepatitis C virus [4] was found to be 8.5 nM.

`Cc1ccc(-c2nn(Cc3ccccc3)c(=O)c(C3=Nc4ccccc4S(=O)(=O)N3)c2O)s1` yielded a half-life in series [7] above 60 min. The same molecule gave a bioavailability in series [6] of 33%. In addition, in series [5], the Papp A→B at 10 µM was determined as 1.3 ×10⁻⁶ cm/s.

Regarding `CC(C)(C)CCn1c(=O)c(C2=CS(=O)(=O)c3cc(NS(C)(=O)=O)ccc3N2)c(O)c2cccn21`, the half-life is 4.7 min in series [7] and 30 min in series [2]. The same molecule displayed a bioavailability in series [6] of 1%. In the series on Hepatitis C virus [1], this molecule yielded an IC50 below 10 nM. Also, the Papp A→B at 10 µM in series [5] came out at 0.3 ×10⁻⁶ cm/s. The molecule also had a CC50 at 72 h in series [3] above 1000 nM. Also, in the series on Hepatitis C virus [4], the 50% effective concentration (EC50) was 1.5 nM.

`CC(C)CCn1nc(-c2cccs2)c(O)c(C2=NS(=O)(=O)c3cc(N(C)S(C)(=O)=O)ccc3N2)c1=O` had a bioavailability in series [6] of 12%. For the same molecule, the Papp A→B at 10 µM in series [5] is 0.2 ×10⁻⁶ cm/s.

As for `Cc1ccc(-c2nn(Cc3ccccc3)c(=O)c(C3=CS(=O)(=O)c4cc(NS(C)(=O)=O)ccc4N3)c2O)s1`, half-maximal inhibition with Hepatitis C virus [1] (IC50) required 1600 nM. Further, the half-life in series [2] is above 60 min.

As to `Cc1ccc(-c2nn(Cc3ccccc3)c(=O)c(C3=CS(=O)(=O)c4ccccc4N3)c2O)s1`, the half-life in series [7] turned out to be 37 min. The same molecule showed a bioavailability in series [6] of 13%. This molecule registered an IC50 in the series with Hepatitis C virus [1] of 12000 nM. The Papp A→B at 10 µM in series [5] was determined as 0.3 ×10⁻⁶ cm/s.

`CC(C)CCn1c(=O)c(C2=CS(=O)(=O)c3cc(NS(C)(=O)=O)ccc3N2)c(O)c2cccn21` had a concentration for half-maximal inhibition (IC50) in the series on Hepatitis C virus [1] of 27 nM. Further, in series [5], the Papp A→B at 10 µM turned out to be 0.027 ×10⁻⁶ cm/s. For the same molecule, the half-life in series [2] is above 60 min. In series [3], this molecule returned a half-maximal cytotoxic concentration (CC50) at 72 h above 1000 nM. The molecule also gave an EC50 with Hepatitis C virus [4] of 13 nM.

In turn, `CCC(C)(C)CCn1nc(-c2cccs2)c(O)c(C2=CS(=O)(=O)c3cc(NS(C)(=O)=O)ccc3N2)c1=O` displayed an IC50 with Hepatitis C virus [1] below 10 nM. Moreover, in series [2], the half-life came to 30 min. Further, the CC50 at 72 h in series [3] is above 1000 nM. In addition, in the series on Hepatitis C virus [4], the EC50 was 2.7 nM.

In the case of `CC(C)CCn1nc(-c2ccccc2)c(O)c(C2=CS(=O)(=O)c3cc(NS(C)(=O)=O)ccc3N2)c1=O`, the half-life in series [7] stood at 34 min; in series [2], 36 min. For the same molecule, the bioavailability in series [6] was found to be 1%. In the series on Hepatitis C virus [1], this molecule displayed a 50% inhibitory concentration (IC50) of 250 nM. Moreover, in series [5], the Papp A→B at 10 µM stood at 0.019 ×10⁻⁶ cm/s. For the same molecule, in series [3], the cytotoxic concentration (CC50) at 72 h was above 33000 nM. Moreover, a half-maximal effect in the series with Hepatitis C virus [4] (EC50) was put at 190 nM.

The molecule `CS(=O)(=O)Nc1ccc2c(c1)S(=O)(=O)C=C(c1c(O)c(-c3cccs3)nn(CC3CC3)c1=O)N2` came in with an IC50 with Hepatitis C virus [1] of 15 nM. The half-life in series [2] is above 60 min. For the same molecule, in series [3], the CC50 at 72 h was above 1000 nM. The response with Hepatitis C virus [4] was half-maximal at 3.5 nM (EC50).

`CC(C)CCn1nc(-c2cccs2)c(O)c(C2=CS(=O)(=O)c3cc(NS(C)(=O)=O)ccc3N2)c1=O`: the results for the half-life in series [7] and in series [2] were 20 min and above 60 min, respectively. The molecule also registered a bioavailability in series [6] of 4%. In the series on Hepatitis C virus [1], this molecule registered an IC50 below 10 nM. Also, in series [5], the Papp A→B at 10 µM came out at 0.012 ×10⁻⁶ cm/s. Moreover, the half-maximal cytotoxic concentration (CC50) at 72 h in series [3] is above 1000 nM. Besides, the EC50 in the series with Hepatitis C virus [4] stood at 1.1 nM.

Regarding `CC(C)CCn1c(=O)c(C2=CS(=O)(=O)c3cc(N(C)S(C)(=O)=O)ccc3N2)c(O)c2cccn21`, the half-life is 20 min in series [7] and above 60 min in series [2]. Further, in series [6], the bioavailability stood at 4%. The same molecule had an IC50 in the series on Hepatitis C virus [1] of 440 nM. In series [5], the Papp A→B at 10 µM was 0.012 ×10⁻⁶ cm/s. In series [3], this molecule came in with a CC50 at 72 h above 33000 nM. This molecule gave an EC50 in the series on Hepatitis C virus [4] of 940 nM.

In general, IC50 refers to the concentration that gives 50% inhibition. By half-life is commonly meant the time in which the quantity being followed falls by half. Broadly, the CC50 is the concentration at which the toxic effect on the cells reaches its halfway point. For orientation: EC50 means the concentration at which the effect is half-maximal. For orientation: Papp A→B means the apparent permeability from the apical to the basolateral side of a cell layer. One may read the bioavailability as the share of a dose that reaches the circulation, judged against a reference dose that is usually intravenous.

The record behind these values is ChEMBL document CHEMBL1156560, “4-(1,1-Dioxo-1,4-dihydro-1lambda6-benzo[1,4]thiazin-3-yl)-5-hydroxy-2H-pyridazin-3-ones as potent inhibitors of HCV NS5B polymerase” (Bioorg Med Chem Lett, 2008).
